Patent publication US20250304567A1, “PYRROLIDIONE DERIVATIVES AS INHIBITORS OF NF KAPPA B INDUCING KINASE” (priority 2022, published 2025)
Like-named read-outs stand apart in the source and are kept apart here.

Legend:
[1] = target: Recombinant Human NF-kappaB-Inducing Kinase (NIK/MAP3K14) (Homo sapiens, UniProt Q99558); assay: Inhibition of auto-phosphorylation of recombinant human NIK/MAP3K14 activity (AlphaScreen); format: biochemical; details: 5 μM ATP, 1 nM NIK, average if tested more than once
In short: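 AlphaScreen detection of phospho-Ser176/180 after 1 nM GST-NIK auto-phosphorylates for 2 h at 25 °C with 5 μM ATP (50 mM Tris pH 7.5, 0.7% DMSO). IC50s come from sigmoidal curves of % inhibition against log dose, using enzyme-free, ATP-free low controls and full-activity high controls.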

[2] = test system: p-IKKa levels in L363 (NIK translocated multiple myeloma) cells; assay: Effect of compounds on p-IKKa levels in L363 (NIK translocated multiple myeloma) cells (AlphaLISA SureFire Ultra p-IKKa Ser176/180); format: cell-based, human; details: average if tested more than once, read-out: Assay 2 IC50
In short: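 Phospho-IKKa (Ser176/180) in lysates quantified by AlphaLISA after 6 h compound exposure, 11-point threefold dilutions, 0.3% DMSO. L363 cells were pre-stimulated overnight and assayed with 250 ng/ml BAFF and 10 μM MG132; % inhibition fitted sigmoidally for IC50, duplicate curves.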

[3] = Homo sapiens, L-363, p-IKKa levels in L363 cells

Chain of Recombinant Human NF-kappaB-Inducing Kinase (NIK/MAP3K14) (Q99558 whole entry): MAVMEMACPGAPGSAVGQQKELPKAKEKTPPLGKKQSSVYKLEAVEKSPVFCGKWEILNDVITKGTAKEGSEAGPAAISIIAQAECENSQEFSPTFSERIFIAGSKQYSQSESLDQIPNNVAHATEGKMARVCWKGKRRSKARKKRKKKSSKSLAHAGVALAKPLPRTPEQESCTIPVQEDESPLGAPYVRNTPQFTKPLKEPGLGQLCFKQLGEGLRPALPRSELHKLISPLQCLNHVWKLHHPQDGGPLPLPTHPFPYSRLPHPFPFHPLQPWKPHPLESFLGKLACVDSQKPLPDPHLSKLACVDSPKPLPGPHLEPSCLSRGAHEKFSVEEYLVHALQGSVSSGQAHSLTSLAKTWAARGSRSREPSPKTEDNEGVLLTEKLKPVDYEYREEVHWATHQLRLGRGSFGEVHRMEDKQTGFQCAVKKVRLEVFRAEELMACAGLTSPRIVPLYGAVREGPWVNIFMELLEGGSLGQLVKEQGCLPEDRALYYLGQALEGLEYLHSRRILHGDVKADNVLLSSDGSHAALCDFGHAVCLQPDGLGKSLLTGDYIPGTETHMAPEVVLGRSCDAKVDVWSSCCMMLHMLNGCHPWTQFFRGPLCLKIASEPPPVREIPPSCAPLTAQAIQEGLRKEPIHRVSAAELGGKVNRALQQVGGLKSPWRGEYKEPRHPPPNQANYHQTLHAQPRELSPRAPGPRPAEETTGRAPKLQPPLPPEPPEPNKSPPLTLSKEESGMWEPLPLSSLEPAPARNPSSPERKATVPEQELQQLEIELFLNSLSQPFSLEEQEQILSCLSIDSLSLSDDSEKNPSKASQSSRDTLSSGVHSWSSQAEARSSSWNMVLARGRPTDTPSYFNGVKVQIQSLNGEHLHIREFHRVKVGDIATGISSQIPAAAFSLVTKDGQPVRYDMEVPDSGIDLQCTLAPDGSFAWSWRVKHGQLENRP

Row | Compound | IC50 [1] [nM] | IC50 ([2]; p-IKKa levels in L363 cells) [nM] | IC50 [2, 3] [nM]
1 | CN1CCC(O)(c2ccc(F)c(-c3csc(-c4ccnc(Nc5ccn(C)n5)n4)n3)c2)C1=O (single isomer, unassigned) [Example 29, 3-(4-fluoro-3-(2-(2-((1-methyl-1H-pyrazol-3-yl)amino)pyrimidin-4-yl)thiazol-4-yl)phenyl)-3-hydroxy-1-methylpyrrolidin-2-one] | 100 to 500 | > 501 | –
2 | CN1CC[C@@](O)(c2cccc(-c3nc(-c4ccnc(Nc5nc6ccccc6n5C)n4)cs3)c2)C1=O [Example 272, (R)-3-Hydroxy-1-methyl-3-(3-(4-(2-((1-methyl-1H-benzo[d]imidazol-2-yl)amino)pyrimidin-4-yl)thiazol-2-yl)phenyl)pyrrolidin-2-one] | > 501 | – | > 501
3 | CC(Nc1nccc(-c2nc(-c3cccc(C4(O)CCN(C)C4=O)c3)cs2)n1)c1cc[nH]n1 (single isomer, unassigned) [Example 41] | < 100 | 100 to 500 | –
4 | CC(C)Cn1cnc(Nc2nccc(-c3csc(-c4cccc([C@]5(O)CCN(C)C5=O)c4)n3)n2)c1 [Example 116, (R)-3-hydroxy-3-(3-(4-(2-((1-isobutyl-1H-imidazol-4-yl)amino)pyrimidin-4-yl)thiazol-2-yl)phenyl)-1-methylpyrrolidin-2-one] | < 100 | – | > 501
5 | C[C@@H](Nc1nccc(-c2csc(-c3cccc([C@]4(O)CCN(C)C4=O)c3)n2)n1)c1cncn1C (single isomer, unassigned) [Example 134] | > 501 | – | > 501
6 | CN1CC[C@@](O)(c2cccc(-c3nc(-c4ccnc(Nc5cccnc5OC(F)F)n4)cs3)c2)C1=O [Example 282, (R)-3-(3-(4-(2-((2-(Difluoromethoxy)pyridin-3-yl)amino)pyrimidin-4-yl)thiazol-2-yl)phenyl)-3-hydroxy-1-methylpyrrolidin-2-one] | < 100 | – | 100 to 500
7 | C[C@@H](Nc1nccc(-c2csc(-c3cccc([C@]4(O)CCN(C)C4=O)c3)n2)n1)c1ccccn1 [Example 185] | < 100 | – | > 501
8 | CN1CC[C@@](O)(c2cccc(-c3ccn(-c4ccnc(Nc5ccn(C)n5)n4)n3)c2)C1=O [Example 2, (R)-3-hydroxy-1-methyl-3-(3-(1-(2-((1-methyl-1H-pyrazol-3-yl)amino)pyrimidin-4-yl)-1H-pyrazol-3-yl)phenyl)pyrrolidin-2-one] | < 100 | – | 100 to 500
9 | Cc1cc(CNc2nccc(-c3csc(-c4cccc([C@]5(O)CCN(C)C5=O)c4)n3)n2)n[nH]1 [Example 113, (R)-3-hydroxy-1-methyl-3-(3-(4-(2-(((3-methyl-1H-pyrazol-5-yl)methyl)amino)pyrimidin-4-yl)thiazol-2-yl)phenyl)pyrrolidin-2-one] | < 100 | – | > 501
10 | CC(Nc1nccc(-c2nc(-c3cccc(C4(O)CCN(C)C4=O)c3)cs2)n1)c1ccn(C)n1 (single isomer, unassigned) [Example 50] | 100 to 500 | > 501 | –
11 | CN1CC[C@@](O)(c2cccc(-c3nc(-c4ccnc(Nc5ccn(C(C)(C)C)n5)n4)cs3)c2)C1=O [Example 285, (R)-3-(3-(4-(2-((1-(tert-butyl)-1H-pyrazol-3-yl)amino)pyrimidin-4-yl)thiazol-2-yl)phenyl)-3-hydroxy-1-methylpyrrolidin-2-one] | < 100 | – | 100 to 500
12 | CN1CC[C@@](O)(c2cccc(-c3nc(-c4ccnc(NCCNS(C)(=O)=O)n4)cs3)c2)C1=O [Example 237] | < 100 | – | > 501
13 | Cc1cc(CNc2nccc(-c3csc(-c4cccc([C@]5(O)CCN(C)C5=O)c4)n3)n2)nn1C [Example 209] | < 100 | – | > 501
14 | CN1CC[C@@](O)(c2cccc(-c3nc(-c4ccnc(Nc5cnn(C6CCC6)c5)n4)cs3)c2)C1=O [Example 73, (R)-3-(3-(4-(2-((1-cyclobutyl-1H-pyrazol-4-yl)amino)pyrimidin-4-yl)thiazol-2-yl)phenyl)-3-hydroxy-1-methylpyrrolidin-2-one] | < 100 | – | 100 to 500
15 | Cc1cc(Nc2nccc(-c3nc(-c4cccc([C@]5(O)CCN(C)C5=O)c4)cs3)n2)n(C)n1 [Example 81, (R)-3-(3-(2-(2-((1,3-dimethyl-1H-pyrazol-5-yl)amino)pyrimidin-4-yl)thiazol-4-yl)phenyl)-3-hydroxy-1-methylpyrrolidin-2-one] | 100 to 500 | – | > 501
16 | Cc1sc(-c2cccc([C@]3(O)CCN(C)C3=O)c2)nc1-c1ccnc(Nc2ccn(C)n2)n1 [Example 17, (R)-3-Hydroxy-1-methyl-3-(3-(5-methyl-4-(2-((1-methyl-1H-pyrazol-3-yl)amino)pyrimidin-4-yl)thiazol-2-yl)phenyl)pyrrolidin-2-one] | < 100 | – | > 501

Row | Compound | IC50 [1] [nM] | IC50 ([2]; p-IKKa levels in L363 cells) [nM] | IC50 [2, 3] [nM]
17 | COc1ccnc(Nc2nccc(-c3csc(-c4cccc([C@]5(O)CCN(C)C5=O)c4)n3)n2)c1 [Example 162, (R)-3-Hydroxy-3-(3-(4-(2-((4-methoxypyridin-2-yl)amino)pyrimidin-4-yl)thiazol-2-yl)phenyl)-1-methylpyrrolidin-2-one] | < 100 | – | > 501
18 | CN1CC[C@@](O)(c2cccc(-c3nc(-c4ccnc(Nc5cc(Cl)n(C)n5)n4)cs3)c2)C1=O [Example 261, (R)-3-(3-(4-(2-((5-Chloro-1-methyl-1H-pyrazol-3-yl)amino)pyrimidin-4-yl)thiazol-2-yl)phenyl)-3-hydroxy-1-methylpyrrolidin-2-one] | < 100 | – | 100 to 500
19 | CN1CC[C@@](O)(c2cccc(-c3nc(-c4ccnc(NCCCS(C)(=O)=O)n4)cs3)c2)C1=O [Example 232] | 100 to 500 | – | > 501
20 | COCCn1cc(Nc2nccc(-c3csc(-c4cccc([C@]5(O)CCN(C)C5=O)c4)n3)n2)cn1 [Example 265, (R)-3-Hydroxy-3-(3-(4-(2-((1-(2-methoxyethyl)-1H-pyrazol-4-yl)amino)pyrimidin-4-yl)thiazol-2-yl)phenyl)-1-methylpyrrolidin-2-one] | < 100 | – | 100 to 500
21 | C[C@@H](Nc1nccc(-c2csc(-c3cccc([C@]4(O)CCN(C)C4=O)c3)n2)n1)c1cn[nH]c1 (single isomer, unassigned) [Example 293] | < 100 | 100 to 500 | –
22 | C[C@H](Nc1nccc(-c2csc(-c3cccc([C@]4(O)CCN(C)C4=O)c3)n2)n1)c1cn[nH]c1 (single isomer, unassigned) [Example 294] | < 100 | > 501 | –
23 | CN1CC[C@@](O)(c2cccc(-c3nc(-c4ccnc(NCc5cnn(C)c5)n4)cs3)c2)C1=O [Example 183] | < 100 | – | > 501
24 | CN1CC[C@@](O)(c2cccc(-c3nc(-c4ccnc(NC5CCOc6cccnc65)n4)cs3)c2)C1=O (stereo partly shown) [Example 227] | < 100 | – | > 501
25 | CN1CC[C@@](O)(c2cccc(-c3csc(-c4ccnc(Nc5cnn6ccccc56)n4)n3)c2)C1=O [Example 82, (R)-3-hydroxy-1-methyl-3-(3-(2-(2-(pyrazolo[1,5-a]pyridin-3-ylamino)pyrimidin-4-yl)thiazol-4-yl)phenyl)pyrrolidin-2-one] | < 100 | – | < 100
26 | CN1CC[C@@](O)(c2cccc(-c3nc(-c4ccnc(Nc5cnn6ccccc56)n4)cs3)c2)C1=O [Example 264, (R)-3-Hydroxy-1-methyl-3-(3-(4-(2-(pyrazolo[1,5-a]pyridin-3-ylamino)pyrimidin-4-yl)thiazol-2-yl)phenyl)pyrrolidin-2-one] | < 100 | – | < 100
27 | CN1CC[C@@](O)(c2cccc(-c3nc(-c4ccnc(Nc5cn(C)nc5OC5CCCC5)n4)cs3)c2)C1=O [Example 95, (R)-3-(3-(4-(2-((3-(cyclopentyloxy)-1-methyl-1H-pyrazol-4-yl)amino)pyrimidin-4-yl)thiazol-2-yl)phenyl)-3-hydroxy-1-methylpyrrolidin-2-one] | < 100 | – | 100 to 500
28 | CN1CC[C@@](O)(c2cccc(-c3nc(-c4ccnc(Nc5cnn6c5NCCC6)n4)cs3)c2)C1=O [Example 54, (R)-3-hydroxy-1-methyl-3-(3-(4-(2-((4,5,6,7-tetrahydropyrazolo[1,5-a]pyrimidin-3-yl)amino)pyrimidin-4-yl)thiazol-2-yl)phenyl)pyrrolidin-2-one] | < 100 | – | 100 to 500
29 | CN1CC[C@@](O)(c2cccc(-c3nc(-c4ccnc(Nc5ccn(C(F)(F)F)n5)n4)cs3)c2)C1=O [Example 257, (R)-3-Hydroxy-1-methyl-3-(3-(4-(2-((1-(trifluoromethyl)-1H-pyrazol-3-yl)amino)pyrimidin-4-yl)thiazol-2-yl)phenyl)pyrrolidin-2-one] | < 100 | – | > 501
30 | CCc1cc(Nc2nccc(-c3csc(-c4cccc([C@]5(O)CCN(C)C5=O)c4)n3)n2)ncn1 [Example 70, (R)-3-(3-(4-(2-((6-ethylpyrimidin-4-yl)amino)pyrimidin-4-yl)thiazol-2-yl)phenyl)-3-hydroxy-1-methylpyrrolidin-2-one] | < 100 | – | > 501
31 | CN1CC[C@@](O)(c2cccc(-c3nc(-c4ccnc(N[C@@H]5[C@@H]6COC[C@@H]65)n4)cs3)c2)C1=O [Example 214] | 100 to 500 | – | > 501
32 | CN1CC[C@@](O)(c2cccc(-c3nc(-c4ccnc(Nc5nc(C(F)(F)F)cs5)n4)cs3)c2)C1=O [Example 248] | < 100 | – | 100 to 500
